Target: T1, Itk (Homo sapiens, UniProt Q08881)
T1 sequence (Q08881 1-620): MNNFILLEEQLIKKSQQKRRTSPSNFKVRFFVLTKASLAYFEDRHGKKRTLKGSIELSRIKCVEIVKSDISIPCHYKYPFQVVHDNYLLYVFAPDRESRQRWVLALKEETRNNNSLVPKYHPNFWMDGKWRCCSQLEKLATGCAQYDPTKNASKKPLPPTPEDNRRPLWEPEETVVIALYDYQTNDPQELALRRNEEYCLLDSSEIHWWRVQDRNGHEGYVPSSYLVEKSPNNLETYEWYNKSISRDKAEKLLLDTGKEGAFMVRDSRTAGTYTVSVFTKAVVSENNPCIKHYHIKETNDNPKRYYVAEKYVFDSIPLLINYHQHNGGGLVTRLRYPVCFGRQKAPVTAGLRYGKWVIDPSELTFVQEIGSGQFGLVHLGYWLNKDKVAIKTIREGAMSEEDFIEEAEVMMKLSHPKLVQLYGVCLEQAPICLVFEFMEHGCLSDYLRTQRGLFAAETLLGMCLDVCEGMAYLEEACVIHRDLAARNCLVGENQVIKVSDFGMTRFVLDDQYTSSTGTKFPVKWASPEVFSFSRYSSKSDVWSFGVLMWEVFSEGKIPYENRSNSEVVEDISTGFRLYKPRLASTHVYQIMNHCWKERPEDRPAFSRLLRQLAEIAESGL
Assay: Itk inhibition assay: spectrophotometric coupled enzyme (Method C)
Assay type: biochemical
Conditions: 100 μM ATP, read-out: Ki in the standard coupled enzyme assay (Method C)
Description: The compounds of the present invention were evaluated as inhibitors of human Itk kinase using either a radioactivity-based, spectrophotometric or alphascreen assay.
Compounds were screened for their ability to inhibit Itk using a standard coupled enzyme assay (Fox et al., Protein Sci., (1998) 7, 2249).
Assays were carried out in a mixture of 20 mM MOPS (pH 7.0), 10 mM MgCl2, 0.1% BSA, 1 mM DTT, 2.5 mM phosphoenolpyruvate, 300 μM NADH, 30 μg/ml pyruvate kinase and 10 μg/ml lactate dehydrogenase. Final substrate concentrations in the assay were 100 μM ATP (Sigma Chemicals) and 3 μM peptide (Biotinylated SAM68 Δ332-443). Assays were carried out at 25° C. and in the presence of 10 nM Itk.
An assay stock buffer solution was prepared containing all of the reagents listed above, with the exception of ATP and the test compound of interest. 60 μl of the stock solution was placed in a 96 well plate followed by addition of 2 μl of DMSO stock containing serial dilutions of the test compound (typically starting from a final concentration of 15 μM). The plate was preincubated for 10 minutes at 25° C. and the reaction initiated by addition of 5 μl of ATP. Initial reaction rates were determined with a Molecular Devices SpectraMax Plus plate reader over a 10 minute time course. IC50 and Ki data were calculated from non-linear regression analysis using the Prism software package (GraphPad Prism version 3.0cx for Macintosh, GraphPad Software, San Diego Calif., USA).

| Structure (SMILES) | Ki [nM] |
| --- | --- |
| NC1CCN(C(=O)c2nc3ccc4cnc(Nc5cccc(S(N)(=O)=O)c5)nc4c3s2)CC1 [Compound V-176] | < 1000 |
| NC1CCN(C(=O)c2cc3c(ccc4cnc(Nc5cccc(-c6ccccc6)c5)nc43)s2)C1 (centres unmarked) [Compound V-73] | < 1000 |
| CC(C)(C)OC(=O)NC1CCN(C(=O)c2cc3c(ccc4cnc(Nc5cccc(F)c5)nc43)s2)C1 (centres unmarked) [Compound V-63] | < 1000 |
| O=C(c1cc2c(ccc3cnc(Nc4cccc(-c5ccsc5Cl)c4)nc32)s1)N1CCNCC1 [Compound V-97] | < 1000 |
| O=C(c1cc2c(ccc3cnc(Nc4cccc(-c5cccnc5)c4)nc32)s1)N1CCNCC1 [Compound V-94] | < 1000 |
| O=C(c1cc2c(ccc3cnc(Nc4cccc(Oc5ccccc5)c4)nc32)s1)N1CCNCC1 [Compound V-84] | < 1000 |
| Cc1ccsc1-c1cccc(Nc2ncc3ccc4sc(C(=O)N5CCNCC5)cc4c3n2)c1 [Compound V-95] | < 1000 |
| O=C(c1cc2c(ccc3cnc(NCCCc4ccccc4)nc32)s1)N1CCNCC1 [Compound V-170] | < 1000 |
| O=C(c1cc2c(ccc3cnc(Nc4cccc(N5CCOCC5)c4)nc32)s1)N1CCNCC1 [Compound V-112] | < 1000 |
| O=C(CCN1CCCCC1)Nc1cccc(Nc2ncc3ccc4sc(C(=O)N5CCOCC5)cc4c3n2)c1 [Compound V-67] | < 1000 |
| O=C(c1cc2c(ccc3cnc(NCCc4ccccc4)nc32)s1)N1CCNCC1 [Compound V-125] | < 1000 |
| CC(=O)Nc1cccc(Nc2ncc3ccc4sc(C(=O)N5CCOCC5)cc4c3n2)c1 [Compound V-68] | < 1000 |
| NC1CCN(C(=O)c2cc3c(ccc4cnc(Nc5cccc(Cc6ccccc6)c5)nc43)s2)C1 (centres unmarked) [Compound V-88] | < 1000 |
| NS(=O)(=O)c1cccc(Nc2ncc3ccc4nc(C(=O)N5CCNCC5)sc4c3n2)c1 [Compound V-177] | < 1000 |
| CC(C)(C)OC(=O)NC1CCN(C(=O)c2cc3c(ccc4cnc(Nc5cccc(-c6ccccc6)c5)nc43)s2)C1 (centres unmarked) [Compound V-60] | < 1000 |
| O=C(c1cc2c(ccc3cnc(N[C@H]4C[C@@H]4c4ccccc4)nc32)s1)N1CCNCC1 [Compound V-127] | < 1000 |
| O=C(c1cc2c(ccc3cnc(NCCc4ccc(F)cc4)nc32)s1)N1CCNCC1 [Compound V-180] | < 1000 |
| CC1CC(C)CN(CCC(=O)Nc2cccc(Nc3ncc4ccc5sc(C(=O)N6CCOCC6)cc5c4n3)c2)C1 (centres unmarked) [Compound V-78] | < 1000 |

| Structure (SMILES) | Ki [nM] |
| --- | --- |
| O=C(c1cc2c(ccc3cnc(Nc4cccc(-c5ccccc5)c4)nc32)s1)N1CCOCC1 [Compound V-58] | < 1000 |
| O=C(c1cc2c(ccc3cnc(NCCc4ccccc4Cl)nc32)s1)N1CCNCC1 [Compound V-162] | < 1000 |
| Cc1cccc(C)c1-c1cccc(Nc2ncc3ccc4sc(C(=O)N5CCNCC5)cc4c3n2)c1 [Compound V-92] | < 1000 |
| CN1CCN(c2cccc(Nc3ncc4ccc5sc(C(=O)N6CCNCC6)cc5c4n3)c2)CC1 [Compound V-114] | < 1000 |
| O=C(c1cc2c(ccc3cnc(NCCc4c[nH]cn4)nc32)s1)N1CCNCC1 [Compound V-178] | < 1000 |
| CN1CCN(C(=O)c2cc3c(ccc4cnc(Nc5cccc(-c6ccccc6)c5)nc43)s2)CC1 [Compound V-59] | < 1000 |
| Cc1ccccc1-c1cccc(Nc2ncc3ccc4sc(C(=O)N5CCNCC5)cc4c3n2)c1 [Compound V-90] | < 1000 |
| CC(C)(C)c1cccc(Nc2ncc3ccc4sc(C(=O)N5CCOCC5)cc4c3n2)c1 [Compound V-55] | < 1000 |
| O=C(c1cc2c(ccc3cnc(NCCc4cccnc4)nc32)s1)N1CCNCC1 [Compound V-173] | < 1000 |
| COc1ccc(CCNc2ncc3ccc4sc(C(=O)N5CCNCC5)cc4c3n2)cc1 [Compound V-175] | < 1000 |
| O=C(c1cc2c(ccc3cnc(NC4Cc5ccccc5C4)nc32)s1)N1CCNCC1 [Compound V-172] | < 1000 |
| NC1CCN(C(=O)c2cc3c(ccc4cnc(Nc5cccc(Oc6ccccc6)c5)nc43)s2)C1 (centres unmarked) [Compound V-85] | < 1000 |
| CC(=O)N1CCc2ccc(Nc3ncc4ccc5sc(C(=O)N6CCNCC6)cc5c4n3)cc21 [Compound V-166] | < 1000 |
| O=C(c1cc2c(ccc3cnc(Nc4cccc(Cc5ccccc5)c4)nc32)s1)N1CCNCC1 [Compound V-87] | < 1000 |
| O=C(c1cc2c(ccc3cnc(NCCc4ccc(Cl)cc4)nc32)s1)N1CCNCC1 [Compound V-159] | < 1000 |
| CN1CCN(C(=O)c2ccc(Nc3ncc4ccc5sc(C(=O)N6CCNCC6)cc5c4n3)cc2)CC1 [Compound V-122] | < 1000 |
| COCCNCCC(=O)Nc1cccc(Nc2ncc3ccc4sc(C(=O)N5CCOCC5)cc4c3n2)c1 [Compound V-76] | < 1000 |

Results, then the compound that gave them:

| Ki [nM] | Structure (SMILES) |
| --- | --- |
| < 1000 | NC1CCN(C(=O)c2cc3c(ccc4cnc(Nc5cccc(F)c5)nc43)s2)C1 (centres unmarked) [Compound V-74] |
| < 1000 | CC(C)c1cccc(Nc2ncc3ccc4sc(C(=O)N5CCC(N)C5)cc4c3n2)c1 (centres unmarked) [Compound V-82] |
| < 1000 | CC(=O)N1CCCN(C(=O)c2cc3c(ccc4cnc(Nc5cccc(S(C)(=O)=O)c5)nc43)s2)CC1 [Compound V-138] |
| < 1000 | CS(=O)(=O)c1cccc(Nc2ncc3ccc4sc(C(=O)NC5CCC(O)CC5)cc4c3n2)c1 (centres unmarked) [Compound V-151] |
| < 1000 | CS(=O)(=O)c1cccc(Nc2ncc3ccc4sc(C(=O)NCC5CCNC5)cc4c3n2)c1 (centres unmarked) [Compound V-146] |
| < 1000 | CS(=O)(=O)c1cccc(Nc2ncc3ccc4sc(C(=O)NC5(CO)CCCC5)cc4c3n2)c1 [Compound V-132] |
| < 1000 | CC(C)(C)c1cccc(Nc2ncc3ccc4sc(C(=O)N5CCC(N)C5)cc4c3n2)c1 (centres unmarked) [Compound V-72] |
| < 1000 | CS(=O)(=O)c1cccc(Nc2ncc3ccc4sc(C(=O)N5CCCNCC5)cc4c3n2)c1 [Compound V-136] |
| < 1000 | CS(=O)(=O)c1cccc(Nc2ncc3ccc4sc(C(=O)N5CCNC(=O)C5)cc4c3n2)c1 [Compound V-131] |
| < 1000 | CC(C)(C)c1cccc(Nc2ncc3ccc4sc(C(=O)NCC5CCNC5)cc4c3n2)c1 (centres unmarked) [Compound V-108] |
| < 1000 | CC(C)(C)c1cccc(Nc2ncc3ccc4sc(C(=O)N5CCNCC5)cc4c3n2)c1 [Compound V-79] |
| < 1000 | CS(=O)(=O)c1cccc(Nc2ncc3ccc4sc(C(=O)N5CCC(O)CC5)cc4c3n2)c1 [Compound V-154] |
| < 1000 | CN(C)C(=O)c1cc2c(ccc3cnc(Nc4cccc(C(C)(C)C)c4)nc32)s1 [Compound V-104] |
| < 1000 | CC(=O)NCCNC(=O)c1cc2c(ccc3cnc(Nc4cccc(S(C)(=O)=O)c4)nc32)s1 [Compound V-135] |
| < 1000 | CC(=O)N1CCN(C(=O)c2cc3c(ccc4cnc(Nc5cccc(S(C)(=O)=O)c5)nc43)s2)CC1 [Compound V-147] |
| < 1000 | CS(=O)(=O)c1cccc(Nc2ncc3ccc4sc(C(=O)N5CCC(C(N)=O)CC5)cc4c3n2)c1 [Compound V-144] |
| < 1000 | C[C@@H]1CN(C(=O)c2cc3c(ccc4cnc(Nc5cccc(S(C)(=O)=O)c5)nc43)s2)C[C@H](C)O1 [Compound V-143] |
| < 1000 | CC(C)Oc1cccc(Nc2ncc3ccc4sc(C(=O)N5CCC(N)C5)cc4c3n2)c1 (centres unmarked) [Compound V-103] |
| < 1000 | CS(=O)(=O)c1cccc(Nc2ncc3ccc4sc(C(=O)N5CCC(N)C5)cc4c3n2)c1 (centres unmarked) [Compound V-101] |
| < 1000 | CC(C)(C)c1cccc(Nc2ncc3ccc4sc(C(=O)N5CC[C@H](N)C5)cc4c3n2)c1 [Compound V-110] |
| < 1000 | CN(C)C(=O)c1cc2c(ccc3cnc(Nc4cccc(S(C)(=O)=O)c4)nc32)s1 [Compound V-141] |
| < 1000 | CS(=O)(=O)c1cccc(Nc2ncc3ccc4sc(C(=O)N5CCC(O)C5)cc4c3n2)c1 (centres unmarked) [Compound V-156] |
| < 1000 | CC(C)(C)c1cccc(Nc2ncc3ccc4sc(C(=O)NCC5CCNCC5)cc4c3n2)c1 [Compound V-107] |
| < 1000 | CC(C)(C)c1cccc(Nc2ncc3ccc4sc(C(=O)N5CC[C@@H](N)C5)cc4c3n2)c1 [Compound V-111] |
| < 1000 | CC1CN(C(=O)c2cc3c(ccc4cnc(Nc5cccc(S(C)(=O)=O)c5)nc43)s2)CC(C)N1 (centres unmarked) [Compound V-137] |
| < 1000 | O=C(c1cc2c(ccc3cnc(Nc4cccc(Br)c4)nc32)s1)N1CCNCC1 [Compound V-89] |
| < 1000 | COC[C@H](C)NC(=O)c1cc2c(ccc3cnc(Nc4cccc(S(C)(=O)=O)c4)nc32)s1 [Compound V-153] |

Reference: patent publication US7700609B2, “Compositions useful as inhibitors of protein kinases” (Vertex Pharmaceuticals Incorporated, priority 2003, dated 2010)
